Reference: ChEMBL document CHEMBL3396964, “SAH derived potent and selective EZH2 inhibitors” (Bioorg Med Chem Lett, 2015)
The source made the active and inactive calls. No cut-off for these calls is given here.

Legend:
[1] = target: Histone-lysine N-methyltransferase EZH2 (Homo sapiens, UniProt O75530+Q09028+Q15022+Q15910, Y641N); experiment: Inhibition of N-terminally FLAG-tagged EZH2 Y641N mutant in EZH2/SUZ12/EED/RbAp48 complex (unknown origin) expressed in baculovirus infected in SF9 cells assessed as inhibition of methylation of nucleosomes at H3K27 by scintillation counting in presence of [3H]SAM
[2] = target: Histone-lysine N-methyltransferase EZH2 (Homo sapiens) (UniProt Q15910); experiment: Inhibition of EZH2 (unknown origin) at 100 uM by cell-based assay
[3] = Permeability across MDCK2 cells; format: ADME, cell-based, Canis lupus familiaris, MDCK-II; settings: dog, MDCK; read-out: permeability
[4] = target: T1, Histone-lysine N-methyltransferase EHMT1 (Homo sapiens, UniProt Q9H9B1); experiment: Inhibition of EHMT1 (unknown origin) by HMT assay
T1 sequence (Q9H9B1 whole entry): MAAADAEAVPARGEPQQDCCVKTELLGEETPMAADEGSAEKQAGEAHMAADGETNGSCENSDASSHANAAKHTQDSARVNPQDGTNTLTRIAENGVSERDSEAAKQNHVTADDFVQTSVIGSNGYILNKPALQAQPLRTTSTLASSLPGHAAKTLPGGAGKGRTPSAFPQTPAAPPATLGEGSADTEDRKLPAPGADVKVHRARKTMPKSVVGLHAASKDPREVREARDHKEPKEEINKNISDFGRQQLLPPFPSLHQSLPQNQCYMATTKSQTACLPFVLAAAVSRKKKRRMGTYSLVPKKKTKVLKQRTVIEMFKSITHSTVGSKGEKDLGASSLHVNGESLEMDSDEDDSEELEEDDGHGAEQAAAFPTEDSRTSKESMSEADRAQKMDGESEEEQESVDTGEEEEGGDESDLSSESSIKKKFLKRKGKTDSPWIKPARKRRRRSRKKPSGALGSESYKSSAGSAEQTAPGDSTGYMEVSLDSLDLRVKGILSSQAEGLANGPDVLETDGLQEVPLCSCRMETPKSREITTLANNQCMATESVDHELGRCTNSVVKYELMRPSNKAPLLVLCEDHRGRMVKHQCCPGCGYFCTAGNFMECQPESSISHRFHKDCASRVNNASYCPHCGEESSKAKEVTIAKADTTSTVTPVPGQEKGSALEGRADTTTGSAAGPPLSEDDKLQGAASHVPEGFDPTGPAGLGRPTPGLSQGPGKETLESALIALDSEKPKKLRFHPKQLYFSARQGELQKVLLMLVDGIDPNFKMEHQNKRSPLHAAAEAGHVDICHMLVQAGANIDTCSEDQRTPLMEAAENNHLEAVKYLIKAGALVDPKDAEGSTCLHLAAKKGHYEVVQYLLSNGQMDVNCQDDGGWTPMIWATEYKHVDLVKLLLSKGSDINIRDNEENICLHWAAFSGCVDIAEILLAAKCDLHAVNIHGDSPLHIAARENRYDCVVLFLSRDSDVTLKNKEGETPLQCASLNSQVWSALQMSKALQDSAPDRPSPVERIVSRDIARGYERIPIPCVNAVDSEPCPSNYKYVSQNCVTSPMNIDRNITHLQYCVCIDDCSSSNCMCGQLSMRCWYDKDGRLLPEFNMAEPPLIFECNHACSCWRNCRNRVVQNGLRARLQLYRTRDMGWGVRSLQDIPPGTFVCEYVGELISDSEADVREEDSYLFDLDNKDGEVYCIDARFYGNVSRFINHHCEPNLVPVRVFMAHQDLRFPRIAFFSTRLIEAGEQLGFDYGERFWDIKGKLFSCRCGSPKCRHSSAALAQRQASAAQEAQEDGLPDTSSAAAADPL

[5] = target: Histone-lysine N-methyltransferase 2A (Homo sapiens, UniProt Q03164); experiment: Inhibition of MLL (unknown origin) by HMT assay
[6] = target: T2, Histone-lysine N-methyltransferase SUV39H2 (Homo sapiens, UniProt Q9H5I1); experiment: Inhibition of SUV39H2 (unknown origin) by HMT assay
[7] = target: T3, N-lysine methyltransferase SMYD2 (Homo sapiens, UniProt Q9NRG4); experiment: Inhibition of SMYD2 (unknown origin) by HMT assay
[8] = target: T2, Histone-lysine N-methyltransferase SUV39H2; experiment: Inhibition of SUV39H2 (unknown origin) at 10 uM by HMT assay
[9] = target: T3, N-lysine methyltransferase SMYD2; experiment: Inhibition of SMYD2 (unknown origin) at 10 uM by HMT assay
[10] = target: Histone-lysine N-methyltransferase SETDB1 (Homo sapiens, UniProt Q15047); settings: 10 uM
Description: Inhibition of SETDB1 (unknown origin) at 10 uM by HMT assay

[11] = target: Histone-lysine N-methyltransferase KMT5C (Homo sapiens, UniProt Q86Y97); settings: 10 uM
Sequence of Histone-lysine N-methyltransferase KMT5C (Q86Y97 whole entry, looked up): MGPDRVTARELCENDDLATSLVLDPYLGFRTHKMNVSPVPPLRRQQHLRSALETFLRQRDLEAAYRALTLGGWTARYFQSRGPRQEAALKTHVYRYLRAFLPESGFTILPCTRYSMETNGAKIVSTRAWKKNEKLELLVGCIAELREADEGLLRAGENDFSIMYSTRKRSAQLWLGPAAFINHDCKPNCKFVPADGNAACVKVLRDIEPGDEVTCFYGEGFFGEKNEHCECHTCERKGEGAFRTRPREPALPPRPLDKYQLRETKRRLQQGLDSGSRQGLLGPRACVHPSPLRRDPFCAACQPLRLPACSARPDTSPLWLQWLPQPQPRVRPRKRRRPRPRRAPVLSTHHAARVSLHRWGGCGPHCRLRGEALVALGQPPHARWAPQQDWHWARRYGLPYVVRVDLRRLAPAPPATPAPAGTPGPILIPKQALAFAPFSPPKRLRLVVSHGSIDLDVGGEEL
Description: Inhibition of SUV420H2 (unknown origin) at 10 uM by HMT assay

T2 sequence (Q9H5I1 whole entry): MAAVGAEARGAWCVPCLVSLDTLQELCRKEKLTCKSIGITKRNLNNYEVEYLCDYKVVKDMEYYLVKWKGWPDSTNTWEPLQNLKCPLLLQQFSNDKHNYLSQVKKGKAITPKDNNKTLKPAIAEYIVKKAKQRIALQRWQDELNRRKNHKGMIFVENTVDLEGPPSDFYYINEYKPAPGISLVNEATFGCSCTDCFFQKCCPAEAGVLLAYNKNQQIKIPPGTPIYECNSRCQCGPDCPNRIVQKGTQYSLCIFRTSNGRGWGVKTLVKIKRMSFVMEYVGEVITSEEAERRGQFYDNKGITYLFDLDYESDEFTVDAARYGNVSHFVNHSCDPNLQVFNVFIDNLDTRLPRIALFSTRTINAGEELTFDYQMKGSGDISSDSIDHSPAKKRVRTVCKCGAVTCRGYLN
T3 sequence (Q9NRG4 whole entry): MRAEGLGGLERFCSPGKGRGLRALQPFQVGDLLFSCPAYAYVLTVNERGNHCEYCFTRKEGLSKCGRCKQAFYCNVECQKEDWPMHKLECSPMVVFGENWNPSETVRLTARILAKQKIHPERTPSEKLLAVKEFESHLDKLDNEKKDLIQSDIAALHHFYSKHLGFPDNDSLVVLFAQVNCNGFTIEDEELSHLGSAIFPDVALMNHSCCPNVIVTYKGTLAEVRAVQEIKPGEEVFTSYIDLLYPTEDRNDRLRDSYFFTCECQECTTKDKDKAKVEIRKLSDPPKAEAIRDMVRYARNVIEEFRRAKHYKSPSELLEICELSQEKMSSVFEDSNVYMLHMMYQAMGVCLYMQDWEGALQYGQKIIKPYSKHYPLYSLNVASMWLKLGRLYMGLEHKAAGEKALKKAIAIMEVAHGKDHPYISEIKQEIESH
Sequence of Histone-lysine N-methyltransferase EZH2 (Q15910 whole entry Y641N, one chain of several): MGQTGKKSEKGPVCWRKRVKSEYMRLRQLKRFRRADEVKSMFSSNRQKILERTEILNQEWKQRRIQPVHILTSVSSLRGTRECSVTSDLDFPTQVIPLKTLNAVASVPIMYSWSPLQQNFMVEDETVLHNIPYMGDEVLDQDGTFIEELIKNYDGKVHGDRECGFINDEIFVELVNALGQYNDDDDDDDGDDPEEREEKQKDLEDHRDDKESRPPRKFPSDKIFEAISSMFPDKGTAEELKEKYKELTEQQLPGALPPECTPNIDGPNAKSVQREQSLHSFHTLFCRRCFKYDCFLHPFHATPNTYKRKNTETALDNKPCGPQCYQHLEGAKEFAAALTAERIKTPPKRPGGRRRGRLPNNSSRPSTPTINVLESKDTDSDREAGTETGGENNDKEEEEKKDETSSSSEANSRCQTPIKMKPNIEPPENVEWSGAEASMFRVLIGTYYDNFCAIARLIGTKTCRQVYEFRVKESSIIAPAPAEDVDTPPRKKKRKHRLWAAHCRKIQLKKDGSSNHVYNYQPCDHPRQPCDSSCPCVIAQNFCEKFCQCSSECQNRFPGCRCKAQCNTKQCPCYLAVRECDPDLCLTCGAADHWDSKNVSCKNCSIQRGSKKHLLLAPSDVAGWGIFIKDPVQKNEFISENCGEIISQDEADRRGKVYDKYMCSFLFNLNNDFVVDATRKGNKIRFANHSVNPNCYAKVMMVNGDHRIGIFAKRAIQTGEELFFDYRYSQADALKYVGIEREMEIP
Sequence of Histone-lysine N-methyltransferase EZH2 (Homo sapiens) (Q15910 whole entry, looked up): as the sequence (Q15910 whole entry Y641N, one chain of several) above, with N641Y counted along it

Nc1ncnc2c1ncn2[C@@H]1O[C@H](CSCC[C@H](N)C(=O)NCc2cc(-c3ccccc3)[nH]n2)[C@@H](O)[C@H]1O
IC50 [1]: 0.07 µM | inhibition [2]: inactive | Papp [3]: 1 ×10⁻⁶ cm/s | IC50 [4]: > 30 µM | IC50 [5]: 18.5 µM | IC50 [6]: > 100 µM | IC50 [7]: > 100 µM | inhibition [8]: 20% | inhibition [9]: inactive | inhibition [10]: inactive | inhibition [11]: inactive
